Data from ChEMBL document CHEMBL5252527, “An Update on Poly(ADP-ribose)polymerase-1 (PARP-1) Inhibitors: Opportunities and Challenges in Cancer Therapy” (J Med Chem, 2016).

Experiments:
[1] = target: T1, Poly [ADP-ribose] polymerase 2 (Homo sapiens, UniProt Q9UGN5); assay: Inhibition of PARP-2 (unknown origin)
Homo sapiens = species on record: Homo sapiens; assay: Selectivity index, ratio of IC50 of human PARP-1 to IC50 of human PARP-2
[2] = target: T2, Poly [ADP-ribose] polymerase 1 (Homo sapiens, UniProt P09874); assay: Inhibition of human PARP-1 using histone as substrate incubated for 16 hrs by ELISA assay
T2 sequence (P09874 whole entry): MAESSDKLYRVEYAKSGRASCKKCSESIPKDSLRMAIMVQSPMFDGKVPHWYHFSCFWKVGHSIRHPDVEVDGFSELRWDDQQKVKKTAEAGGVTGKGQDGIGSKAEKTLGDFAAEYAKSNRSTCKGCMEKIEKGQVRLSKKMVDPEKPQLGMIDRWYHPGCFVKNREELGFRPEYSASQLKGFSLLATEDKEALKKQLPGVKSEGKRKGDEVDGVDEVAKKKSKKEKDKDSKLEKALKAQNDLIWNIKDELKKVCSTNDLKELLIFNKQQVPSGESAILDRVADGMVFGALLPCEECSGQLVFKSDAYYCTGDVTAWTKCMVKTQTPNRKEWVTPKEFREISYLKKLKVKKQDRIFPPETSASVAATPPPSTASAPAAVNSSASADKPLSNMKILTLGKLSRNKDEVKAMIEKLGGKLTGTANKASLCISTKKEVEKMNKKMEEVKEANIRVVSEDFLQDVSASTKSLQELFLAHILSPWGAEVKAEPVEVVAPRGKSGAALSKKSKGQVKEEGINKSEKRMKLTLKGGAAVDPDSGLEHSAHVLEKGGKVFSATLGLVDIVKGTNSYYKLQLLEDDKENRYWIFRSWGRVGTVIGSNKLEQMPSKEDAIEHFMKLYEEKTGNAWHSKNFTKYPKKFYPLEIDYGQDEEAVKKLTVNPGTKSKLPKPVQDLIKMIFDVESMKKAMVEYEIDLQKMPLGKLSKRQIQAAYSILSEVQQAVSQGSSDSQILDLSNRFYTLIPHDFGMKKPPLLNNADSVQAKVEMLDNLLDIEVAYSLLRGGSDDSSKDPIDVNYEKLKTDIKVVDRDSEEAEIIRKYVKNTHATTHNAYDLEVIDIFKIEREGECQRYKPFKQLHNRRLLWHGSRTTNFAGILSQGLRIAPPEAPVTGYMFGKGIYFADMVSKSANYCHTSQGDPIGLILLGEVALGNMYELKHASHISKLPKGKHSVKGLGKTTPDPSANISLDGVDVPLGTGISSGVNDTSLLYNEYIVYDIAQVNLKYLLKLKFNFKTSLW

[3] = Inhibition of calf thymus […]; set-up: species or system Bos taurus
[4] = target: Poly [ADP-ribose] polymerase 1 (Bos taurus, UniProt P18493); assay: Inhibition of calf thymus PARP-1
Sequence of Poly [ADP-ribose] polymerase 1 (Bos taurus, UniProt P18493) (P18493 whole entry): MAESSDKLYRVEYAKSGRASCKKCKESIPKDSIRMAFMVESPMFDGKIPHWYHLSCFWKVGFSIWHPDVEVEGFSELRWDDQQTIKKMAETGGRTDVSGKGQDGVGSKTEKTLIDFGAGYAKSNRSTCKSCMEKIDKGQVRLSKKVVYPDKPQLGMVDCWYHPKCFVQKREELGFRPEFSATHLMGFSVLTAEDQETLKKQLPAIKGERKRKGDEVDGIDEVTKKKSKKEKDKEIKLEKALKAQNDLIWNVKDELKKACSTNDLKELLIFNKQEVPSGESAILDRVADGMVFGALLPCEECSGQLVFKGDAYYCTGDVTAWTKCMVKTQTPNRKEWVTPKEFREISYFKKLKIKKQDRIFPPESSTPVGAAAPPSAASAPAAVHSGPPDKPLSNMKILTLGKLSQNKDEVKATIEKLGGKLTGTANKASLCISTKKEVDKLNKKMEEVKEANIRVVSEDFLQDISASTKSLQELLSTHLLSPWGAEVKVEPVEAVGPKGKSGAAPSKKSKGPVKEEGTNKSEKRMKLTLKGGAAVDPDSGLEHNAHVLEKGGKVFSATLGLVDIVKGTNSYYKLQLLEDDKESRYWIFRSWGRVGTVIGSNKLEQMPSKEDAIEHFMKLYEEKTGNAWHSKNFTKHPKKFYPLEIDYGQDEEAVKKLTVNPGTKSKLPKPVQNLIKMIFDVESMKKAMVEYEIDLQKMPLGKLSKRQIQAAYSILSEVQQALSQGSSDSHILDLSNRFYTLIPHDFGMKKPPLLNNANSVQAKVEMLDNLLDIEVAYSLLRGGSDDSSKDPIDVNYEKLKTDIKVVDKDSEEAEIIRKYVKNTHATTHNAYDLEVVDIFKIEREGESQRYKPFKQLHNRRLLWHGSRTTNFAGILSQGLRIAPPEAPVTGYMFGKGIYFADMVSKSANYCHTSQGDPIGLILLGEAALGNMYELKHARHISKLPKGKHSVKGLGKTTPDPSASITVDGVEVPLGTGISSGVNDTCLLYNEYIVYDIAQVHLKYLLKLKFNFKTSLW

[5] = Half life in rat; type: ADME; details: in vivo
[6] = Oral bioavailability in rat; type: ADME, organism-based; details: in vivo
[7] = target: Poly [ADP-ribose] polymerase 1 (Mus musculus, UniProt P11103); assay: Inhibition of mouse recombinant PARP-1 incubated for 60 mins
Sequence of Poly [ADP-ribose] polymerase 1 (Mus musculus, UniProt P11103) (P11103 whole entry): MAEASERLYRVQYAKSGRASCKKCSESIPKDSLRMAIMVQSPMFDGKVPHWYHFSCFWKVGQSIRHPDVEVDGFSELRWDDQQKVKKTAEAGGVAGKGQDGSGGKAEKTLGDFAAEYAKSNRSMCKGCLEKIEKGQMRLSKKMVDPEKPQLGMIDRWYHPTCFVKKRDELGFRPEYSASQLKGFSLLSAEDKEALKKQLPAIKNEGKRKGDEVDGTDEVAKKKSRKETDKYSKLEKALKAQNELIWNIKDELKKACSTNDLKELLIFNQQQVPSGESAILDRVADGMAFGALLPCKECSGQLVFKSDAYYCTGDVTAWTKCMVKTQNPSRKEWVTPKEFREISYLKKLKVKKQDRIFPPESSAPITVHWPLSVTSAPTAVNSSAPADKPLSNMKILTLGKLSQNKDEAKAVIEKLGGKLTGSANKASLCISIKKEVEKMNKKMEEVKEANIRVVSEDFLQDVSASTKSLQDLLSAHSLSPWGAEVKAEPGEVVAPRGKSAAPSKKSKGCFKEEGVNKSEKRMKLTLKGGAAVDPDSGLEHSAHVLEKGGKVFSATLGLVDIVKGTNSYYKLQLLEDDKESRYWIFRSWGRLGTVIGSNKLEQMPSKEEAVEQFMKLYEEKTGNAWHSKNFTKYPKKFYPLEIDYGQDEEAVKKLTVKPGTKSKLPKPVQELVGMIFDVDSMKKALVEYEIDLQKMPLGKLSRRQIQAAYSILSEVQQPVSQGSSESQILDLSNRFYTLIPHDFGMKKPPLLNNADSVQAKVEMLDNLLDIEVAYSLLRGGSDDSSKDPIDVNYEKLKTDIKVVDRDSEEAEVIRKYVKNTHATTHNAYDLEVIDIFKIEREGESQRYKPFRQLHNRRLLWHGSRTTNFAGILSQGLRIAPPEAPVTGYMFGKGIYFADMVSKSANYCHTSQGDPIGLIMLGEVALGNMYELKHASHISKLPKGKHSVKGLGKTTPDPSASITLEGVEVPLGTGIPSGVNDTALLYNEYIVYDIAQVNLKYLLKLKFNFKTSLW

U-251 = assay: Inhibition of human PARP expressed in U-251 cells at 3 uM relative to control; type: cell-based
[8] = target: T2, Poly [ADP-ribose] polymerase 1; assay: Inhibition of PARP-1 (unknown origin) assessed as inhibition constant
[9] = target: T2, Poly [ADP-ribose] polymerase 1; assay: Inhibition of human PARP-1
[10] = target: T2, Poly [ADP-ribose] polymerase 1; assay: Inhibition of PARP-1 (unknown origin)
[11] = target: T1, Poly [ADP-ribose] polymerase 2; assay: Inhibition of human PARP-2 incubated for 18 to 20 hrs by scintillation proximity assay

T1 sequence (Q9UGN5 whole entry): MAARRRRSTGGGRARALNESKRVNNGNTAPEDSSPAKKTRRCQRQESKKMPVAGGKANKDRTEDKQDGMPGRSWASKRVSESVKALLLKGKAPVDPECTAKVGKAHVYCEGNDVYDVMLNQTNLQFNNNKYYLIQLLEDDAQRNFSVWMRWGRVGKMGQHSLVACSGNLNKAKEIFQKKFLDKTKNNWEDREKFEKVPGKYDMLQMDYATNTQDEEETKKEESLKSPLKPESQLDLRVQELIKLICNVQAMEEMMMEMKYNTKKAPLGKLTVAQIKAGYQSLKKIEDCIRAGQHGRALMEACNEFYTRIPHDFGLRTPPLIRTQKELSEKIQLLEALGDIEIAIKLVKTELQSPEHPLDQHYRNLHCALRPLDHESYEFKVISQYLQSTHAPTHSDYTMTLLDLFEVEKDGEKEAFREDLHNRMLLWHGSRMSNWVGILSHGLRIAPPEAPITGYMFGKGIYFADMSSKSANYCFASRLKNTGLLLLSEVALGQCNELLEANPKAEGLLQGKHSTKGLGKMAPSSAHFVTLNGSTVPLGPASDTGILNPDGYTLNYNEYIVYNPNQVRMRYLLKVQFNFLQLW

`C[C@]12CCCN1CC1=NNC(=O)c3cc(F)cc4[nH]c2c1c34` [PAMIPARIB] showed an IC50 [1] of 0.11 nM.

In the case of `CC(C)(C)[Si](C)(C)OCCCN1CCN(C(=O)c2cc(Cn3c(=O)[nH]c(=O)c4ccccc43)ccc2F)CC1=O`, the Ratio IC50 (Homo sapiens) is reported as 8 and the IC50 [2] is reported as 1.29 nM.

`Cc1cccc2c(=O)[nH]c(CCCN3CC=C(c4ccc(F)cc4)CC3)nc12` showed an IC50 [3] of 167 nM and an IC50 [4] of 16 nM.

For `Cn1ncnc1[C@H]1c2n[nH]c(=O)c3cc(F)cc(c23)N[C@@H]1c1ccc(F)cc1` [TALAZOPARIB], the t1/2 [5] was 40 h and the bioavailability [6] was greater than 40%.

Molecule `O=C(Nc1cccc2c(=O)[nH]ccc12)c1ccccc1` has an IC50 [7] of 1500 nM.

In the case of `O=c1[nH]nc2c3c(cccc13)Oc1ccc(CN3CCC(O)CC3)cc1-2` [E-7016], the inhibition (U-251) is reported as 84% and the Ki [8] is reported as 50 nM.

Molecule `NC(=O)c1ccc(I)c([N+](=O)[O-])c1` [INIPARIB] has an IC50 [9] of 100000 nM.

Work on `COc1cccc2[nH]c3c4c(c5c(c3c12)C(=O)N(CN1CCN(C)CC1)C5=O)CCC4` [CEP-9722] yielded an IC50 [10] of 20 nM and an IC50 [1] of 6 nM.

`Cn1cccc1/C=C1\C(=O)NC(=O)c2ccccc21` showed an IC50 [11] of 4000 nM.
